Measured values: patent US5444089A, “Neutral lipids from endosperm of Job's tears” (Li; Da P., priority 1992, dated 1995)

Tests used:
sarcoma (S-180) = test: Anti-tumor effect on sarcoma (S-180) in vivo; design: species or system mice
Method: Sarcoma (S-180) tissues growing luxuriantly were prepared to be a cell suspension with physical saline 1:3(w/v). Mice were divided into groups at random the next day and were administered with doses of NLEJ emulsion of 25 ml/kg iv×7 (qd), doses of cyclophosphamide of 30 mg/kg ip×2 (second and fourth), doses of mitoxantrone (DHAD) of 2 mg/kg ip×2 (second and fourth), and doses of mitomycin of 1.5 mg/kg ip×2 (second and fourth). Tumor tissues from all treatments were sampled and weighed to calculate tumor inhibition ratios 14 days after inoculating.

leukocyte [1] = test: Protection on decrease of leukocyte induced by cyclophosphamide chemotherapy; type: in vivo, Swiss mice; details: CTX 45 mg/kg ip × 1, 5, 9
Method: (§1) 80 Swiss mice were divided into eight groups at random, were administered with cyclophosphamide at 45 mg/kg ip×3 (second, sixth and tenth), or harringtonine (HRTN) at 1 mg/kg ip×3 (second, sixth and tenth). To each of two of the medicine groups were administered NLEJ emulsion at the same time, at doses of 2.4 ml/kg and 6.25 ml/kg iv×7 (every day). At the beginning and on the fourth day of each administration, blood was sampled from the angle of each mouse's eye, and leukocytes of the blood were counted.

[2] = tested on: Walaer carcinosarcoma (solid) W256; test: Anti-tumor effect on Walaer carcinosarcoma (solid) W256 in vivo; design: species or system rat
Method: Ascites Walaer carcinosarcoma (solid) W256 tissues growing luxuriantly were digested to be a cell suspension. The cell suspension was regulated to have a 1-2×10^7 /ml cell density. 0.2 ml of the suspension was inoculated under the skin of armpit of each rat. The rats were divided into groups at random the next day and were administered with doses of NLEJ emulsion of 20 ml/kg, 10 ml/kg, 5 ml/kg iv×10 (qd), and doses of […], the doses of cyclophosphamide were 30 mg/kg iv×7 (qd), mg/kg iv×2 (third and fifth). Tumor tissues from all treatments were sampled and weighed to calculate tumor inhibition ratios 14 days after inoculating.

melanoma (B16) = test: Metastasis of melanoma (B16) in lung in vivo; design: species or system C57BL/6 mouse; details: 100 mg/kg ip × 2 (3, 5)
Method: Melanoma B16 tissues growing at logarithmic stage were digested with 0.15% trypsin, and 0.2 ml suspension of 2.5×10^5 cells/ml in RPMI 1640 medium from the tissues was inoculated intravenously into the tail of each C57BL/6 mouse. Mice were divided into groups at random 3 days after inoculating and were administered different emulsions. Mice were killed 21 days after inoculating, and metastasized colonies of melanoma in mouse's lung were counted to calculate the inhibition ratio and compare the different effects of different administrations of NLEJ emulsion on metastasis of malanoma in lung. 100 mg/kg cyclophosphamide (CTX) was administered in the same way to compare with NLEJ emulsion.

human hepatoma (QGY) = test: Growth of human hepatoma (QGY) in nude mice; type: in vivo, human (nude mouse); details: 30 mg/kg ip daily 7 days
Method: Hepatoma (QGY) tissues growing luxuriantly were homogenized in physical saline (1:4) and prepared as a suspension. Each nude mouse was inoculated subcutaneously with 0.2 ml of the suspension at its armpit. The nude mice were divided into groups at random the next day. The doses of NLEJ emulsion were 25 ml/kg, 12.5 ml/kg and 6.25 ml/kg. The emulsion was administrated intravenously at the tail of the nude mouse every day for 10 days. One group of mice were administered with cyclophosphamide (CTX) of a dose of 30 mg/kg intraperitoneally every day for 7 days. The nude mice of the control group were administered with a similar emulsion just absent the NLEJ (blank emulsion) at a dose of 25 ml/kg intravenously at the tail of the nude mouse every day for 10 days. Tumor tissues of all nude mice were sampled and weighed 30 days after inoculating.

[3] = tested on: human small cell lung cancer (SPC); test: Growth of human small cell lung cancer (SPC) in nude mice; type: in vivo, human (nude mouse); details: 40 mg/kg iv×10 (qd)
Method: SPC tumor tissues growing luxuriantly were cut into pieces of 2 mm, one of the pieces was inoculated under the skin of the armpit of each nude mouse. Nude mice were divided into groups at random the next day and one group was administered with the NLEJ emulsion at a dose of 25 ml/kg iv×10 (qd), one group of mice was administered with dacarbazine (DTIC) at a dose of 40 mg/kg iv×10 (qd), and the nude mice of the control group were administered with blank emulsion at a dose of 25 ml/kg iv×10 (qd). Tumor tissues of all nude mice were sampled and weighed 30 days after inoculating.

[4] = tested on: mouse Ehrlich ascites tumor; details: cited from earlier work
leukocyte [5] = test: Protection on decrease of leukocyte induced by harringtonine chemotherapy; type: in vivo, Swiss mice; details: HRTN 1 mg/kg ip × 1, 5, 9
Method: as §1

CO[C@@]12[C@H](COC(N)=O)C3=C(C(=O)C(C)=C(N)C3=O)N1C[C@@H]1N[C@@H]12 [Mitomycin, mitomycin]
Inhibition (%) (sarcoma (S-180); 1.5 mg/kg ip × 2 (1, 3)): 39.4%

O=P1(N(CCCl)CCCl)NCCCO1 (stereo not shown) [CTX, cyclophosphamide]
Leucocyte number (leukocyte [1]; time 0): 62 × 100/mm^3 | Leucocyte number (leukocyte [1]; time 3): 49 × 100/mm^3 | Leucocyte number (leukocyte [1]; time 6): 45 × 100/mm^3 | Leucocyte number (leukocyte [1]; time 9): 41 × 100/mm^3 | Leucocyte number (leukocyte [1]; time 12): 41 × 100/mm^3 | Leucocyte number (leukocyte [1]; time 15): 42 × 100/mm^3 | Leucocyte number (leukocyte [1]; time 18): 45 × 100/mm^3 | Leucocyte number (leukocyte [1]; time 21): 47 × 100/mm^3 | Leucocyte number (leukocyte [1]; time 24): 49 × 100/mm^3 | Inhibition (%) (sarcoma (S-180); 30 mg/kg ip × 2 (1, 3)): 39.4% | Inhibition (%) ([2]; 10 mg iv × 2): 38.58% | Weight (tumor) ([2]; 10 mg iv × 2): 2.07 ± 1.11 g | Inhibition (%) ([2]; 30 mg iv × 7): 88.13% | Weight (tumor) ([2]; 30 mg iv × 7): 0.4 ± 0.15 g | Colony No. (melanoma (B16); Table 4): 18.80 ± 8.50 | Inhibition (%) (melanoma (B16); Table 4): 95.90% | Colony No. (melanoma (B16); Table 5): 8.0 ± 6.22 | Inhibition (%) (melanoma (B16); Table 5): 98.67% | Colony No. (melanoma (B16); Table 6): 0 | Inhibition (%) (melanoma (B16); Table 6): 100% | Inhibition (%) (human hepatoma (QGY)): 91.00% | Tumor (human hepatoma (QGY)): 0.28 ± 0.08 g

O=C1c2c(O)ccc(O)c2C(=O)c2c(NCCNCCO)ccc(NCCNCCO)c21 [DHAD, mitoxantrone]
Inhibition (%) (sarcoma (S-180); 2 mg/kg ip × 2 (1, 3)): 50%

CN(C)/N=N/c1[nH]cnc1C(N)=O [DTIC, dacarbazine]
Inhibition (%) [3]: 94.94% | Tumor [3]: 0.18 ± 0.04

CCCCCC/C=C\CCCCCCCC(=O)O[C@H](C)[C@H](C)OC(=O)CCCCCCCCC/C=C/CCCCCC [coixenolide]
Growth of mouse Ehrlich ascites tumor ([4]; Ukita 1961): inhibit the growth | Anti-tumor activity ([4]; pure compound): strong anti-tumor activity

COC(=O)C[C@](O)(CCC(C)(C)O)C(=O)O[C@@H]1C(OC)=C[C@]23CCCN2CCc2cc4c(cc2[C@H]13)OCO4 [HRTN, harringtonine]
Leucocyte number (leukocyte [5]; time 0): 60 × 100/mm^3 | Leucocyte number (leukocyte [5]; time 3): 75 × 100/mm^3 | Leucocyte number (leukocyte [5]; time 6): 65 × 100/mm^3 | Leucocyte number (leukocyte [5]; time 9): 50 × 100/mm^3 | Leucocyte number (leukocyte [5]; time 12): 44 × 100/mm^3 | Leucocyte number (leukocyte [5]; time 15): 43 × 100/mm^3 | Leucocyte number (leukocyte [5]; time 18): 49 × 100/mm^3 | Leucocyte number (leukocyte [5]; time 21): 53 × 100/mm^3 | Leucocyte number (leukocyte [5]; time 24): 56 × 100/mm^3
